Experimental data: patent publication US10723723B2, “Substituted bicycle heterocyclic derivatives useful as ROMK channel inhibitors” (BRISTOL-MYERS SQUIBB COMPANY, priority 2016, dated 2020)

Experiments:
hROMK (human Kir1.1) = hROMK (human Kir1.1) (Homo sapiens (Human), UniProt P48048); experiment: Thallium Flux Assay (FluxOR, CHO T-Rex hROMK stable cell line); assay type: cell-based; conditions: CHO T-Rex hROMK cells, 10-point concentration response curve; read-out: Human ROMK TH Flux IC50
hERG channels = hERG channels (Homo sapiens (Human), UniProt Q12809); experiment: hERG Manual Patch Clamp Assay (HEK 293 cells stably expressing hERG channels); assay type: cell-based; conditions: human, HEK 293 cells stably expressing hERG channels, pH 7.4
hERG channels, sequence (Q12809 whole entry): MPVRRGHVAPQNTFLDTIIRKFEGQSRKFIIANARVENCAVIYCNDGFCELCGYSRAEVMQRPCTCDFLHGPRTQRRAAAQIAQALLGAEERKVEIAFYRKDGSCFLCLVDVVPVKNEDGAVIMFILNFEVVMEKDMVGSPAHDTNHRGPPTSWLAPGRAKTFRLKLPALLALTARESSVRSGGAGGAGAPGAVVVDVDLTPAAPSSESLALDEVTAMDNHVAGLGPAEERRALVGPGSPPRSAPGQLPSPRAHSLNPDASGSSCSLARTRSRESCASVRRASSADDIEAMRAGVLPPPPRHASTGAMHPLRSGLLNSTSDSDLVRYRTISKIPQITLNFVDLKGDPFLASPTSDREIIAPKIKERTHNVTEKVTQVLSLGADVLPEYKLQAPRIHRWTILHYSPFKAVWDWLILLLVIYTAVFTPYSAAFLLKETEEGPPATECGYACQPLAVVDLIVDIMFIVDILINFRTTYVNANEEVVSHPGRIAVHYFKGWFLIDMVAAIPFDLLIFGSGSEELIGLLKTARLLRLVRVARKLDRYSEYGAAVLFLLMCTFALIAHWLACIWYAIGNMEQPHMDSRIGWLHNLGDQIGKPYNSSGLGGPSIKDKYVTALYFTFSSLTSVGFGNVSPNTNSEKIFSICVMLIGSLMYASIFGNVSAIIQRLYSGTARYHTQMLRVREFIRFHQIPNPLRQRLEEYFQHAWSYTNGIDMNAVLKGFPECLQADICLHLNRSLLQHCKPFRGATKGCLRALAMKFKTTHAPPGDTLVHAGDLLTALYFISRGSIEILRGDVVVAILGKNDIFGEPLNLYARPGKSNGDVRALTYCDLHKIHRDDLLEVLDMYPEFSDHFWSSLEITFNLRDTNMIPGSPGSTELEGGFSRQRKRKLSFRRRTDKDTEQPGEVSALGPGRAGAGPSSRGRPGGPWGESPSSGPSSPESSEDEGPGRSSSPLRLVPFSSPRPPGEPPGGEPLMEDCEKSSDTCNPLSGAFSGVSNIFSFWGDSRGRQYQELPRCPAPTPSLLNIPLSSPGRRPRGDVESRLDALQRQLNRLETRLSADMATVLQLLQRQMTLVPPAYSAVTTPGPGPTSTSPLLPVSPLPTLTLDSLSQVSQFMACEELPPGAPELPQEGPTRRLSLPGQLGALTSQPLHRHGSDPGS
Description: hERG electrophysiology assay: The experimental compounds were assessed for hERG activity on HEK 293 cells stably expressing hERG channels using patch clamp technique. Coverslips plated with hERG expressing cells were placed in the experimental chamber and were perfused with a solution composed of (in mM): 140 NaCl, 4 KCl, 1.8 CaCl2), 1 MgCl2, 10 Glucose, 10 HEPES (pH 7.4, NaOH) at room temperature. Borosilicate patch pipettes had tip resistances of 2-4 Mohms when filled with an internal solution containing: 130 KCl, 1 MgCl2, 1 CaCl2), 10 EGTA, 10 HEPES, 5 ATP-K2 (pH 7.2, KOH). The cells were clamped at −80 mV in whole cell configuration using an Axopatch 200B (Axon instruments, Union City, Calif.) patch clamp amplifier controlled by pClamp (Axon instruments) software. Upon formation of a gigaseal, the following voltage protocol was repeatedly (0.05 Hz) applied to record tail currents: depolarization step from −80 mV to +20 mV for 2 seconds followed by a hyperpolarization step to −65 mV (3 seconds) to elicit tail currents. Compounds were applied after stabilization of tail current. First, tail currents were recorded in presence of extracellular solution alone (control) and subsequently, in extracellular solution containing increasing compound concentrations. Each compound concentration was applied for 2-5 minutes. The percentage inhibition at each concentration was calculated as reduction in peak tail current with respect to the peak tail current recorded in the presence of control solution. Data analysis was performed in a custom made template. The percent inhibitions at different concentrations were plotted to obtain a concentration response curve, which was subsequently fitted with a four parameter equation to calculate hERG IC50 value.
A lower hERG % Inhibition value indicates less inhibition of the hERG current

hROMK (human Kir1.1), sequence (P48048 whole entry): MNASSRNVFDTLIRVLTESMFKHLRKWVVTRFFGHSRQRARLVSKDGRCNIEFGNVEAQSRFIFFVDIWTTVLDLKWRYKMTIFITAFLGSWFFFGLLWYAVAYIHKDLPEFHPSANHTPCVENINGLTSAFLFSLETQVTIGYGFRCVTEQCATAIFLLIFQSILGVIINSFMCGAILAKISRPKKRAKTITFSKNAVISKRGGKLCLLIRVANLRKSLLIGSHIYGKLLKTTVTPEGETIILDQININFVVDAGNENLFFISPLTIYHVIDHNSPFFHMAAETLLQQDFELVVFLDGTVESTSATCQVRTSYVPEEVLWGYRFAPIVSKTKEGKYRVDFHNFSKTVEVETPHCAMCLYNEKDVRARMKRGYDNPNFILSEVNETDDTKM

Row | SMILES | IC50 (hROMK (human Kir1.1)) [nM] | inhibition at 1 µM (hERG channels) [%]
1 | Cc1c([C@@H](O)CNCc2cn(-c3ccc4oc(=O)n(C)c4c3C)cn2)ccc2c1COC2=O [Example 149, (R)-5-(4-(((2-hydroxy-2-(4-methyl-1-oxo-1,3-dihydroisobenzofuran-5-yl)ethyl)amino)methyl)-1H-imidazol-1-yl)-3,4-dimethylbenzo[d]oxazol-2(3H)-one] | 84 | 8.6
2 | Cc1c(C(O)CN(C)Cc2ccc(-n3cc(C#N)c4ccccc43)cc2)ccc2c1COC2=O (stereo not drawn) [Example 12-I, 1-(4-(((2-hydroxy-2-(4-methyl-1-oxo-1,3-dihydroisobenzofuran-5-yl)ethyl)(methyl)amino)methyl)phenyl)-1H-indole-3-carbonitrile] | 78 | 99
3 | Cc1c([C@@H](O)CNCc2cnc(-n3cc(C#N)c(C4CC4)n3)nc2)ccc2c1COC2=O [Example 117, (R)-3-cyclopropyl-1-(5-(((2-hydroxy-2-(4-methyl-1-oxo-1,3-dihydroisobenzofuran-5-yl)ethyl)amino)methyl)pyrimidin-2-yl)-1H-pyrazole-4-carbonitrile] | 24 | 32
4 | COc1cc(-n2cc(CNC[C@H](O)c3ccc4c(c3C)COC4=O)cn2)cc2c1oc(=O)n2C [Example 112, (R)-5-(4-(((2-hydroxy-2-(4-methyl-1-oxo-1,3-di-Hydroisobenzofuran-5-yl)ethyl)amino)methyl)-1H-pyrazol-1-yl)-7-methoxy-3-mthylbenzo[d]oxazol-2(3H)-one] | 66 | 4.2
5 | Cc1cc(-n2cc(CNC[C@H](O)c3ccc4c(c3C)COC4=O)c3cccnc32)ncc1C#N [Example 169, (R)-6-(3-(((2-hydroxy-2-(4-methyl-1-oxo-1,3-dihydroisobenzofuran-5-yl)ethyl)amino)methyl)-1H-pyrrolo[2,3-b]pyridin-1-yl)-4-methylnicotinonitrile] | 59 | 79
6 | COc1nn(-c2ncc(CNC[C@H](O)c3ccc4c(c3C)COC4=O)cn2)cc1C#N [Example 113, (R)-1-(5-(((2-hydroxy-2-(4-methyl-1-oxo-1,3-dihydroisobenzofuran-5-yl)ethyl)amino)methyl)pyrimidin-2-yl)-3-methoxy-1H-pyrazole-4-carbonitrile] | 14 | 12
7 | Cc1c([C@@H](O)CNCc2ccc(-n3cc(C#N)c(C4CC4)n3)nc2)ccc2c1COC2=O [Example 116, (R)-3-cyclopropyl-1-(5-(((2-hydroxy-2-(4-methyl-1-oxo-1,3-dihydroisobenzofuran-5-yl)ethyl)amino)methyl)pyridin-2-yl)-1H-pyrazole-4-carbonitrile] |  | 76
8 | Cc1cc(-n2cc(CNC(C)C(O)c3ccc4c(c3C)COC4=O)cn2)ncc1C#N (single isomer, unassigned) [Example 176-I, 6-(4-(((1-hydroxy-1-(4-methyl-1-oxo-1,3-dihydroisobenzofuran-5-yl)propan-2-yl)amino)methyl)-1H-pyrazol-1-yl)-4-methylnicotinonitrile] | 4 | 44
9 | Cc1cc(-c2ccc(CN(C)CC(O)c3ccc4c(c3C)COC4=O)cc2)ncc1C#N (single isomer, unassigned) [Example 31-I, 6-(4-(((2-hydroxy-2-(4-methyl-1-oxo-1,3-dihydroisobenzofuran-5-yl)ethyl)(methyl)amino)methyl)phenyl)-4-methylnicotinonitrile] | 40 | 39
10 | CCOC(=O)c1nn(-c2cc(C)c(C#N)cn2)cc1CNC[C@H](O)c1ccc2c(c1C)COC2=O [Example 98, ethyl (R)-1-(5-cyano-4-methylpyridin-2-yl)-4-(((2-hydroxy-2-(4-methyl-1-oxo-1,3-dihydroisobenzofuran-5-yl)ethyl)amino)methyl)-1H-pyrazole-3-carboxylate] |  | 54
11 | Cc1c([C@@H](O)CNCc2cnc(-n3cnc(C#N)c3)nc2)ccc2c1COC2=O [Example 45, (R)-1-(5-(((2-hydroxy-2-(4-methyl-1-oxo-1,3-dihydroisobenzofuran-5-yl)ethyl)amino)methyl)pyrimidin-2-yl)-1H-imidazole-4-carbonitrile] | 12 | 74
12 | Cc1c([C@@H](O)CNCc2ccc(-n3ccnc3)nc2)ccc2c1COC2=O [Example 109, (R)-5-(2-(((6-(1H-imidazol-1-yl)pyridin-3-yl)methyl)amino)-1-hydroxyethyl)-4-methylisobenzofuran-1(3H)-one] | 40 | 12
13 | CCOc1cc(-n2ncc(CNC[C@H](O)c3ccc4c(c3C)COC4=O)n2)ncc1C#N [Example 155, (R)-4-ethoxy-6-(4-(((2-hydroxy-2-(4-methyl-1-oxo-1,3-dihydroisobenzofuran-5-yl)ethyl)amino)methyl)-2H-1,2,3-triazol-2-yl)nicotinonitrile] | 31 | 20
14 | Cc1cn(-c2ccc(CNC[C@H](O)c3ccc4c(c3C)COC4=O)cn2)nn1 [Example 118, (R)-5-(1-hydroxy-2-(((6-(4-methyl-1H-1,2,3-triazol-1-yl)pyridin-3-yl)methyl)amino)ethyl)-4-methylisobenzofuran-1(3H)-one] | 70 | 16
15 | Cc1c([C@@H](O)CNCc2cnn(-c3cccc(C#N)c3)c2)ccc2c1COC2=O [Example 161, (R)-3-(4-(((2-hydroxy-2-(4-methyl-1-oxo-1,3-dihydroisobenzofuran-5-yl)ethyl)amino)methyl)-1H-pyrazol-1-yl)benzonitrile] | 77 | 48
16 | Cc1cc(-n2cc(CNC[C@H](O)c3ccc4c(c3C)COC4=O)n(C)c2=O)ncc1C#N [Example 159, (R)-6-(4-(((2-hydroxy-2-(4-methyl-1-oxo-1,3-dihydroisobenzofuran-5-yl)ethyl)amino)methyl)-3-methyl-2-oxo-2,3-dihydro-1H-imidazol-1-yl)-4-methylnicotinonitrile] | 93 | 6.5
17 | CCOc1cc(-n2cc(CNC[C@H](O)c3ccc4c(c3C)COC4=O)nn2)ncc1C#N [Example 156, (R)-4-ethoxy-6-(4-(((2-hydroxy-2-(4-methyl-1-oxo-1,3-dihydroisobenzofuran-5-yl)ethyl)amino)methyl)-1H-1,2,3-triazol-1-yl)nicotinonitrile] | 9.7 | 15
18 | Cc1c([C@@H](O)CNCc2cnn(-c3cnc(C#N)cn3)c2)ccc2c1COC2=O [Example 41, (R)-5(4-(((2-hydroxy-2-(4-methyl-1-oxo-1,3-dihydroisobenzofuran-5-yl)ethyl)amino)methyl)-1H-pyrazol-1-yl)pyrazine-2-carbonitrile] | 32 | 50
19 | Cc1cc(-n2cc(CNC[C@H](NCCO)c3ccc4c(c3C)COC4=O)cn2)ncc1C#N [Example 56, (R)-6-(4-(((2-((2-hydroxyethyl)amino)-2-(4-methyl-1-oxo-1,3-dihydroisobenzofuran-5-yl)ethyl)amino)methyl)-1H-pyrazol-1-yl)-4-methylnicotinonitrile] | 80 | 3.7
20 | Cc1c(C(O)CNCc2ccc(-c3ccc(C#N)c(F)c3)nc2)ccc2c1COC2=O (stereo not drawn) [Example 3-I, 2-fluoro-4-(5-(((2-hydroxy-2-(4-methyl-1-oxo-1,3-dihydroisobenzofuran-5-yl)ethyl)amino)methyl)pyridin-2-yl)benzonitrile] |  | 66
21 | Cc1c([C@@H](O)CNCc2cnn(-c3ccc4oc(=O)n(C)c4c3)c2)ccc2c1COC2=O [Example 81, (R)-5-(4-(((2-hydroxy-2-(4-methyl-1-oxo-1,3-dihydroisobenzofuran-5-yl)ethyl)amino)methyl)-1H-pyrazol-1-yl)-3-methylbenzo[d]oxazol-2(3H)-one] |  | 6
22 | Cc1c(C(O)CN(C)Cc2ccc(-c3ccc(C#N)c(F)c3)nc2)ccc2c1COC2=O (single isomer, unassigned) [Example 21-I, 2-fluoro-4-(5-(((2-hydroxy-2-(4-methyl-1-oxo-1,3-dihydroisobenzofuran-5-yl)ethyl)(methyl)amino)methyl)pyridin-2-yl)benzonitrile] |  | 68
23 | Cc1cc(-c2ccc(CN(C)CC(O)c3ccc4c(c3C)COC4=O)cn2)ncc1C#N (single isomer, unassigned) [Example 22-I, 5′-(((2-hydroxy-2-(4-methyl-1-oxo-1,3-dihydroisobenzofuran-5-yl)ethyl)(methyl)amino)methyl)-4-methyl-[2,2′-bipyridine]-5-carbonitrile] |  | 9.5
24 | Cc1c([C@H](CNCc2cnn(-c3ccc4oc(=O)n(C)c4c3)c2)OC(=O)[C@H](N)C(C)C)ccc2c1COC2=O [Example 44, (R)-1-(4-methyl-1-oxo-1,3-dihydroisobenzofuran-5-yl)-2-(((1-(3-methyl-2-oxo-2,3-dihydrobenzo[d]oxazol-5-yl)-1H-pyrazol-4-yl)methyl)amino)ethyl D-valinate] | 140 | 
25 | Cc1cc(-c2cnc(CNC[C@H](O)c3ccc4c(c3C)COC4=O)nc2)ncc1C#N [Example 40, (R)-6-(2-(((2-hydroxy-2-(4-methyl-1-oxo-1,3-dihydroisobenzofuran-5-yl)ethyl)amino)methyl)pyrimidin-5-yl)-4-methylnicotinonitrile] | 340 | 
26 | Cc1c(C(O)CN(C)Cc2cnc(-c3ccc4oc(=O)n(C)c4c3)nc2)ccc2c1COC2=O (stereo not drawn) [Example 9-I] | 290 | 
27 | Cc1cc(-c2ccc(CNCC(O)c3ccc4c(c3C)COC4=O)cn2)ncc1C#N (single isomer, unassigned) [Example 4-I, 5′-(((2-hydroxy-2-(4-methyl-1-oxo-1,3-dihydroisobenzofuran-5-yl)ethyl)amino)methyl)-4-methyl-[2,2′-bipyridine]-5-carbonitrile] |  | 22
28 | Cc1cc(-n2ccc3cc(CN(C)CC(O)c4ccc5c(c4C)COC5=O)ccc32)ncc1C#N (single isomer, unassigned) [Example 33-I, 6-(5-(((2-hydroxy-2-(4-methyl-1-oxo-1,3-dihydroisobenzofuran-5-yl)ethyl)(methyl)amino)methyl)-1H-indol-1-yl)-4-methylnicotinonitrile] | 3300 | 
